Experimental data: patent publication US20060046972A1, “Cytotoxic nucleoside analog compound 003 for treating cancer” (Parker Hughes Institute, priority 2004, published 2006)

Assays:
[1] = system: MOLT-3 T-lymphoma cells; test: Confocal laser scanning microscopy of mitotic spindle, MOLT-3; assay type: cell-based, human; details: 100 μM
Protocol: (§1) Immunofluorenscence was used to examine the spindle features of human cancer cell lines treated with Compound 003 or 0.5% DMSO. Initially, cells at log phase were seeded onto sterile 22 mm coverslips in six -well culture plates. 24 hours later, the cells were treated with compound 003 for 2 hours at 37° C., 5% C02, fixed in methanol (−20° C. 15 min) followed by a 15 minute incubation with PBS +0.1.% Tx-100. The coverslips were incubated with antibodies raised against α-tubulin, γ-tubulin (Sigma Chemical Co., St Louis, Mo.) (40 min 37° C.), washed in PBS-Tx-100, and incubated with an appropriate secondary antibody conjugated to FITC (Jackson ImmunoResearch, Westgrove, Pa.). Cellular DNA was labeled with 5 μM TOTO3 (Molecular Probes, Eugene, Oreg.) for 20 minutes. Coverslips were immediately inverted onto slides in Vectashield (Vector Labs, Burlingame, Calif.) to prevent photobleaching, sealed with nail varnish and stored at −20° C. The slides were examined using a Bio-Rad MRC-1024 Laser Scanning Confocal Microscope equipped with a Kr/Ar laser (BioRad, Hercules, Calif.) mounted on a Nikon Eclipse E800 upright microscope with high numerical aperture objectives (Nikon, Melville, N.Y.). Digital data were processed using Lasersharp (BioRad) and Adobe Photoshop software (Adobe Systems, Mountain View, Calif.). […]

[2] = system: MDA-MB breast cancer cells; test: Confocal laser scanning microscopy of mitotic spindle, MDA-MB; assay type: cell-based, human
Protocol: as §1

[3] = system: MMTV/Neu transgenic mice (spontaneous breast cancer); test: Murine model of Her2 positive breast cancer, virgin MMTV/Neu transgenic mice; assay type: in vivo
Source text: Overexpression of the wild type Neu in the mammary glands of transgenic mice induces metastatic breast cancer. Accordingly, in the MMTV/Neu transgenic strain, the wild-type neu is overexpressed in the mammary gland under the control of the MMTV long terminal repeat. This animal model has been used to analyze the Her2/neu overexpression in breast epithelia, as well as the efficacy of new therapeutic approaches to prevent or treat Her2/neu overexpressing malignancies.
MMTV/Neu transgenic mice were treated with Compound 003 that was added to the daily food of the mice at an average daily dose level of 50 mg/kg/day for the duration of the experiment. Mice were screened for the tumor formation every other day. Tumor-free survival was analyzed using life table statistics as previously reported. The protective anti-cancer activity of Compound 003 was evaluated according to the rise of the survival rate and prolongation of the tumor-free survival of the experimental animals as compared with the control animals. Statistical Significance was determined using the Kaplan Meier Log-Rank test.
Neu transgenic mice were mated to FVB non-transgenic mice, and heterozygous neu transgenic offspring were identified by PCR analysis. A total of 62 female neu transgenic mice were identified from the offspring. These transgenic mice were used to examine the effects of a nontoxic dose level of Compound 003 (50 mg/kg/day) on spontaneous breast cancer development in two independent experiments.
In the first experiment, 30 virgin transgenic mice were used. Treatments were initiated when female mice were 6 weeks of age. Fifteen of the 15 vehicle treated control transgenic mice developed breast cancer with a median cancer-free survival time of 224 days (Mean=253±23 days) (FIG. 7, FIG. 8A&B). At 340 days, only 20% of the mice were tumor-free and by 480 days all had developed breast cancer. The mammary gland tumors were excised, paraffin-embedded and sectioned for H+E staining. A representative tumor section from a neu transgenic mouse is shown in panel C of FIG. 8. […]

[4] = system: BT20 cells; test: Cellular uptake of Compound 003; assay type: in vitro ADME, human; details: 50 μM, 1 hr
Source text: Intracellular metabolism of Compound 003 was studied in CEM T-lineage lymphoma cell line, BT20 breast cancer cell line, T98 glioblastoma cell line, and Nalm-6 B-lineage leukemia cell line. CEM and Nalm6 cells were maintained in RPMI supplemented with 10% fetal bovine serum, and 1% penicillin/streptomycin. BT20 and T98 cells w.ere cultured in a medium composed of MEM, 10% fetal bovine serum, 0.1-mM of nonessential amino acids and Earles salts, and 1% penicillin/streptomycin. CEM and Nalm6 cells at a density of 10^6 cells per ml were utilized in the drug metabolism study. BT20 and T98 cells were seeded in 6-cm petri-dishes at 4 million cells and 2 million cells per plate, respectively, the day before the experiment. Either one plate of adherent cells or 10 million non-adherent cells was utilized at each time point. Cells were incubated with various concentrations of the compounds up to 24 hrs at 37° C. After incubation, cells were washed 2 times with ice-cold PBS, and extracted by addition of 0.5-1 ml of 60% methanol. […] With efflux experiments, cells 1×10^6/mL (the same density as in the uptake study) were incubated with 100 μM Compound 003 for 1 hr, washed 2 times with ice-cold PBS, and resuspended with culture medium without drug, and the metabolite efflux from cells to the medium was measured after 6 hr of incubation.

COC(=O)C(C)NP(=O)(OCC1OC(n2cc(C)c(=O)[nH]c2=O)CC1N=[N+]=[N-])Oc1ccc(OC)cc1 (stereo not drawn) [Compound 003, 3′-azidothymidine 5′-[p-methoxyphenylmethoxyalaninyl phosphate]] was tested, and the mitotic spindle formation [1] was “induced aberrant multipolar spindle formation”, the mitotic spindle formation [2] was “induced aberrant multipolar (instead of normal bipolar) spindle formation” and the median cancer-free survival ([3]; 50 mg/kg/day in food, vehicle 224 days, P=0.0007) was 455 days. The “proportion of mice cancer-free” value ([3]; 50 mg/kg/day, at 340 days, vehicle 20±10%) was 93±7%, the “proportion of mice still cancer-free” value ([3]; 50 mg/kg/day, at 480 days, when all vehicle mice had breast cancer) was “one third” and the “uptake of Compound 003, BT20 relative to Nalm6 and CEM cells” value [4] was “about 2 fold”.
